Experimental data as given in patent US7767118B2, “Nanoparticles from supercritical fluid antisolvent process using particle growth and agglomeration retardants” (Ferro Corporation, priority 2003, dated 2010).

Tests used:
[1] = Scanning electron micrographs of the particles formed in the Example; assay type: physicochemical; details: particles precipitated from acetone into SC-CO2 at 40° C., 80 bar with alpha D glucose penta acetate as growth retardant; FIGS. 4A and 4B; substantially uniform in size, circular in shape
From the text: FIGS. 4A and 4B are scanning electron micrographs of the acetaminophen particles formed in the Example at two magnifications. […] Some minimal particle agglomeration or bridging is apparent.

[2] = Particle size distribution by laser light scattering; assay type: physicochemical; details: FIG. 5, standard deviation 1.87 microns, particles precipitated in SC-CO2 at 40° C., 80 bar with alpha D glucose penta acetate
Method: The mean diameter of the acetaminophen particles formed in the Example was measured using the conventional laser light scattering technique, which is known in the art. FIG. 5 is a graph showing the size distribution of particles. The mean volume diameter of the particles was 4.08 microns and the standard deviation was 1.87 microns.

particle size (scanning electron micrographs) [1]: 1-2 microns
mean volume diameter of the particles [2]: 4.08 microns
SMILES: CC(=O)Nc1ccc(O)cc1 [acetaminophen]
